Reference: patent US8003649B2 (AstraZeneca AB, priority 2007, dated 2011)

Target: T1, Androgen Receptor (AR) (Homo sapiens, UniProt P10275, T878A)
T1 construct: cell based immuno-fluorescence assay using the LNCaP prostate epithelial cell line; endogenous in cells; host or cells: LNCaP clone FGC (ATCC CRL-1740)
T1 sequence (P10275 1-920 T878A): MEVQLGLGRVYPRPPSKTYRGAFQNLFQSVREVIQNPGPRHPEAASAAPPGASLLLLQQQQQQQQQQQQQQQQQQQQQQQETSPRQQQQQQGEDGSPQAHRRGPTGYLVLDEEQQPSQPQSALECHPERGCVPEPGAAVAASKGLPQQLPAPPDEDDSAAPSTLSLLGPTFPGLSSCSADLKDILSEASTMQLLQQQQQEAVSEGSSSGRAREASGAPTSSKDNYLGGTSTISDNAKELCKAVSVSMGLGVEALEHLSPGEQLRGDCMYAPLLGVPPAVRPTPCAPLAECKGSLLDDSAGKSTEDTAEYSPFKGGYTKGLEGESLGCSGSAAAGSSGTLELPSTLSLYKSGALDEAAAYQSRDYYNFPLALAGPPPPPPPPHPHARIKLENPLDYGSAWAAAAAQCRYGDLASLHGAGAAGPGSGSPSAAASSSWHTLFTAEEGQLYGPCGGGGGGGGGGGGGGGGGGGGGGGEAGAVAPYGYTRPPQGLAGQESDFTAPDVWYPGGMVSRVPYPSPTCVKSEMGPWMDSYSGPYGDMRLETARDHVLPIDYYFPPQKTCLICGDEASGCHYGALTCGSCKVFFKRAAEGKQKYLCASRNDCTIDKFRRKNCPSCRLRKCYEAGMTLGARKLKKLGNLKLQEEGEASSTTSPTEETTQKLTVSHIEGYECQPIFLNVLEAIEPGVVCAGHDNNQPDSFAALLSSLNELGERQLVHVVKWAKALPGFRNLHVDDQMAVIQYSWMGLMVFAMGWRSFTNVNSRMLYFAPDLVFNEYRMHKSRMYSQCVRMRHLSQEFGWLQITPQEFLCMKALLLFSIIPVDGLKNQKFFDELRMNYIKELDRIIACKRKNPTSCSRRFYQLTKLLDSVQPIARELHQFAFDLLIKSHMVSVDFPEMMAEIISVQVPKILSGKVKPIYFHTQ
Assay: LNCaP Androgen Receptor Down-regulation Cell Assay (immunofluorescence end point)
Assay type: cell-based
Conditions: LNCaP prostate carcinoma cells, compound incubation 20-22 hours, 50% reduction of the AR signal; read-out: Androgen Receptor Down-regulation Assay (a) IC50/μM
Procedure, shortened: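 LNCaP cells in medium with 5% charcoal-stripped FBS were plated overnight, then treated with a compound dilution series for 20-22 h at 37° C. After fixation, permeabilisation and immunostaining, AR-associated green fluorescence was quantified by laser-scanning microplate cytometry; AR down-regulation expressed as IC50 from fitted dose-response curves.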

Row | Compound | DC50
1 | Cc1cccc(C)c1N1CCN(c2ccc3nnc(C(F)(F)Cl)n3n2)CC1 [Example 353, 3-[chloro(difluoro)methyl]-6-[4-(2,6-dimethylphenyl)piperazin-1-yl][1,2,4]triazolo[4,3-b]pyridazine] | 0.69 µM
2 | CN1CCC(Oc2ccc(OC3CCN(c4ccc5nnc(C(F)(F)F)n5n4)CC3)cc2)CC1 [Example 436] | 0.75 µM
3 | CN1CCC(C(=O)Nc2ccc(C3CCN(c4ccc5nnc(C(F)(F)F)n5n4)CC3)cc2)CC1 [Example 663] | 2.7 µM
4 | FC(F)(F)c1ccc(CN2CC3CN(c4ccc5nnc(C(F)(F)F)n5n4)CC3C2)cn1 (stereo not shown) [Example 201, 3-(trifluoromethyl)-6-[2-[[6-(trifluoromethyl)pyridin-3-yl]methyl]-1,3,3a,4,6,6a-hexahydropyrrolo[3,4-c]pyrrol-5-yl]-[1,2,4]triazolo[4,3-b]pyridazine] | 1.7 µM
5 | N#Cc1cccc(CN2CC3CN(c4ccc5nnc(C(F)(F)F)n5n4)CC3C2)c1 (stereo not shown) [Example 197, 3-[[5-[3-(trifluoromethyl)-[1,2,4]triazolo[4,3-b]pyridazin-6-yl]-1,3,3a,4,6,6a-hexahydropyrrolo[3,4-c]pyrrol-2-yl]methyl]benzonitrile] | 0.82 µM
6 | O=C(c1ccc(C2CCN(c3ccc4nnc(C(F)(F)F)n4n3)CC2)cc1)N1CC[C@@H](O)C1 [Example 738] | 3.3 µM
7 | FC(F)(F)c1nnc2ccc(N3CCC(c4cccnc4)CC3)nn12 [Example 610, 6-(4-pyridin-3-ylpiperidin-1-yl)-3-(trifluoromethyl)[1,2,4]triazolo[4,3-b]pyridazine] | 3.2 µM
8 | O=C(c1ccc(C2CCN(c3ccc4nnc(C(F)(F)F)n4n3)CC2)cc1)N1CCOCC1 [Example 635] | 2.9 µM
9 | Cc1ccc(Oc2cccc(CN3CCN(c4ccc5nnc(C(F)(F)F)n5n4)CC3)c2)cc1 [Example 105, 6-[4-[[3-(4-methylphenoxy)phenyl]methyl]piperazin-1-yl]-3-(trifluoromethyl)-[1,2,4]triazolo[4,3-b]pyridazine] | 3.2 µM
10 | Fc1ccc2[nH]cc(CN3CCN(c4ccc5nnc(C(F)(F)F)n5n4)CC3)c2c1 [Example 283] | 0.78 µM
11 | CN(Cc1ccc(C#N)cc1)C1CCN(c2ccc3nnc(C(F)(F)F)n3n2)CC1 [Example 409] | 3.9 µM
12 | FC(F)(F)c1nnc2ccc(N3CCC(c4ccc(OCCCN5CCNCC5)cc4)CC3)nn12 [Example 728, 6-[4-[4-(3-piperazin-1-ylpropoxy)phenyl]piperidin-1-yl]-3-(trifluoromethyl)[1,2,4]triazolo[4,3-b]pyridazine] | 1.5 µM
13 | CCc1ccc(CN2CCN(c3ccc4nnc(C(F)(F)F)n4n3)CC2)cc1 [Example 159, 6-[4-[(4-ethylphenyl)methyl]piperazin-1-yl]-3-(trifluoromethyl)-[1,2,4]triazolo[4,3-b]pyridazine] | 1.4 µM
14 | COCCN(C)C(=O)c1ccc2[nH]cc(C3CCN(c4ccc5nnc(C(F)(F)F)n5n4)CC3)c2c1 [Example 504] | 1.9 µM
15 | COc1ccc(CN2CCN(c3ccc4nnc(C(F)(F)F)n4n3)CC2)cn1 [Example 142, 6-[4-[(6-methoxypyridin-3-yl)methyl]piperazin-1-yl]-3-(trifluoromethyl)-[1,2,4]triazolo[4,3-b]pyridazine] | 5.1 µM
16 | CN(C)C(=O)c1ccc(OC2CCN(c3ccc4nnc(C(F)(F)F)n4n3)CC2)cc1 [Example 417] | 4.6 µM
17 | CN(C)CCOc1cccc(C2CCN(c3ccc4nnc(C(F)(F)F)n4n3)CC2)c1 [Example 675] | 1.5 µM
18 | Fc1cccc(CN2CCN(c3ccc4nnc(C(F)(F)F)n4n3)CC2)c1Cl [Example 768] | 4.7 µM
19 | FC(F)(F)c1nnc2ccc(N3CCC(OCC4CC4)CC3)nn12 [Example 304, 6-[4-(cyclopropylmethoxy)piperidin-1-yl]-3-(trifluoromethyl)[1,2,4]triazolo[4,3-b]pyridazine] | 1.8 µM
20 | FC(F)(F)c1nnc2ccc(N3CCC(c4cn(CCN5CCCC5)c5ccccc45)CC3)nn12 [Example 508, 6-[4-[1-(2-pyrrolidin-1-ylethyl)-1H-indol-3-yl]piperidin-1-yl]-3-(trifluoromethyl)[1,2,4]triazolo[4,3-b]pyridazine] | 2.2 µM
21 | Cc1cccc(CN2CCCN(c3ccc4nnc(C(F)(F)F)n4n3)CC2)c1 [Example 178, 6-[4-[(3-methylphenyl)methyl]-1,4-diazepan-1-yl]-3-(trifluoromethyl)-[1,2,4]triazolo[4,3-b]pyridazine] | 0.88 µM
22 | O=C(NCCN1CCOCC1)c1ccc(C2CCN(c3ccc4nnc(C(F)(F)F)n4n3)CC2)cc1 [Example 638, N-(2-morpholin-4-ylethyl)-4-[1-[3-(trifluoromethyl)[1,2,4]triazolo[4,3-b]pyridazin-6-yl]piperidin-4-yl]benzamide] | 0.9 µM

Row | Compound | DC50
23 | FC(F)(F)c1nnc2ccc(N3CCN(Cc4ccc5c(c4)OCO5)CC3)nn12 [Example 85, 6-[4-(1,3-benzodioxol-5-ylmethyl)piperazin-1-yl]-3-(trifluoromethyl)-[1,2,4]triazolo[4,3-b]pyridazine] | 1.6 µM
24 | Cn1ccc(CNC(=O)c2cccc(OC3CCN(c4ccc5nnc(C(F)(F)F)n5n4)CC3)c2)n1 [Example 706] | 2.9 µM
25 | FC(F)(F)c1ncccc1CN1CCN(c2ccc3nnc(C(F)(F)F)n3n2)CC1 [Example 777] | 4.6 µM
26 | Fc1ccc(CN[C@H]2[C@@H]3CN(c4ccc5nnc(C(F)(F)F)n5n4)C[C@@H]32)cc1 [Example 554, (1α,5α,6α) N-(4-fluorobenzyl)-3-[3-(trifluoromethyl)[1,2,4]triazolo[4,3-b]pyridazin-6-yl]-3-azabicyclo[3.1.0]hexan-6-amine] | 4.9 µM
27 | COc1cccc(S(=O)(=O)N2CC3CN(c4ccc5nnc(C(F)(F)F)n5n4)CC3C2)c1 (stereo not shown) [Example 454] | 9.2 µM
28 | Fc1ccc(F)c(CN2CCN(c3ccc4nnc(C(F)(F)F)n4n3)CC2)c1F [Example 764] | 2.5 µM
29 | COCCNC(=O)c1ccc(C2CCN(c3ccc4nnc(C(F)(F)F)n4n3)CC2)cc1 [Example 633] | 1.9 µM
30 | CS(=O)(=O)c1cc(F)cc(CN2CCN(c3ccc4nnc(C(F)(F)F)n4n3)CC2)c1 [Example 778, 6-[4-[3-fluoro-5-(methylsulfonyl)benzyl]piperazin-1-yl]-3-(trifluoromethyl)[1,2,4]triazolo[4,3-b]pyridazine] | 2.6 µM
31 | COCCOCC1CCN(c2ccc3nnc(C(F)(F)F)n3n2)CC1 [Example 296] | 2.1 µM
32 | C[C@H]1CN(c2ccc3nnc(C(F)(F)F)n3n2)CCN1Cc1ccc(F)c(C#N)c1 [Example 575] | 2.5 µM
33 | FC(F)(F)c1nnc2ccc(N3CCC(n4ccc5ccccc54)CC3)nn12 [Example 542] | 2.6 µM
34 | FC(F)(F)c1nnc2ccc(N3CCC(COc4cccc(Cl)c4)CC3)nn12 [Example 473] | 3.2 µM
35 | FC(F)C(F)(F)c1nnc2ccc(N3CCN(C(c4ccccc4)c4ccccc4)CC3)nn12 [Example 1, 6-(4-benzhydrylpiperazin-1-yl)-3-(1,1,2,2-tetrafluoroethyl)-[1,2,4]triazolo[4,3-b]pyridazine] | 3.4 µM
36 | FC(F)(F)c1nnc2ccc(N3CCC(c4cccc(OCCCN5CCNCC5)c4)CC3)nn12 [Example 673] | 0.73 µM
37 | Fc1ccc(F)c(CN2CCN(c3ccc4nnc(C(F)(F)F)n4n3)CC2)c1 [Example 386] | 2.4 µM
38 | Cc1cc(NCC2CC[C@@H]3CN(c4ccc5nnc(C(F)(F)F)n5n4)CCN3C2)c2ccccc2n1 (stereo partly drawn) [Example 28, N-[[(9aR)-2-[3-(trifluoromethyl)-[1,2,4]triazolo[4,3-b]pyridazin-6-yl]-1,3,4,6,7,8,9,9a-octahydropyrido[1,6-a]pyrazin-7-yl]methyl]-2-methylquinolin-4-amine] | 2.8 µM
39 | O=C(c1ccc2[nH]cc(C3CCN(c4ccc5nnc(C(F)(F)F)n5n4)CC3)c2c1)N1CC[C@@H](O)C1 [Example 500] | > 18 µM
40 | Fc1ccc(Cl)c(CN2CCN(c3ccc4nnc(C(F)F)n4n3)CC2)c1 [Example 815] | > 17 µM
41 | FC(F)(F)c1nnc2ccc(N3CCC(c4ccc(OCCn5ccnc5)cc4)CC3)nn12 [Example 846, 6-[4-[4-[2-(1H-imidazol-1-yl)ethoxy]phenyl]piperidin-1-yl]-3-(trifluoromethyl)[1,2,4]triazolo[4,3-b]pyridazine] | 0.27 µM
42 | Fc1cncc(CN2CC3CN(c4ccc5nnc(C(F)(F)F)n5n4)CC3C2)c1 (stereo not shown) [Example 789] | 2.1 µM
43 | CNC(=O)c1cccc(OC2CCN(c3ccc4nnc(C(F)(F)F)n4n3)CC2)c1 [Example 694] | 3.2 µM
